This is an account of results in ChEMBL document CHEMBL4837241, “Identification of Betulinic Acid Derivatives as Potent TGR5 Agonists with Antidiabetic Effects via Humanized TGR5H88Y Mutant Mice” (J Med Chem, 2021).

The solubility is the dissolved amount per volume that the medium holds. Low values mean a poorly soluble substance, high ones a readily soluble substance. The EC50 is the concentration giving half of the maximal effect. What is called Emax is the maximal effect, on the per cent scale that the assay sets. Broadly, the Papp A→B is how fast a substance crosses the layer from the apical side. As a reminder, the Papp B→A is how fast a substance crosses the layer from the basolateral side. What is called efflux ratio is a quotient of directional permeabilities that is used to spot active efflux.

Each structure is given as a SMILES string. Converted amounts (≈) assume the structure as drawn. The source made the active and inactive calls. The rule behind the calls is not given here.

Data set [1] concerns HEK293. Nature of the data set: Agonist activity at N-terminal HA-tagged dog TGR5 expressed in HEK293 cells assessed as […] in intracellular cAMP levels incubated for 30 mins by Lance Ultra cAMP assay relative to control. The conditions noted are these: Canis lupus familiaris, filed as agonist. The format is cell-based. Background: Changes in cAMP serve as a functional read-out for many G protein-coupled receptors.

For data set [2], the system named is HEK293. The experiment in a line: Ratio of agonist activity at N-terminal HA-tagged mouse TGR5 expressed in HEK293 cells to agonist activity at N-terminal HA-tagged mouse TGR5 H88Y mutant expressed in HEK293 cells. The format is cell-based.
Data set [3] is described as follows: Aqueous solubility of compound. The format is physicochemical. To be noted: buffer.
In data set [4] the target is T1, G-protein coupled bile acid receptor 1 (Homo sapiens, UniProt Q8TDU6).
T1 sequence (Q8TDU6 whole entry): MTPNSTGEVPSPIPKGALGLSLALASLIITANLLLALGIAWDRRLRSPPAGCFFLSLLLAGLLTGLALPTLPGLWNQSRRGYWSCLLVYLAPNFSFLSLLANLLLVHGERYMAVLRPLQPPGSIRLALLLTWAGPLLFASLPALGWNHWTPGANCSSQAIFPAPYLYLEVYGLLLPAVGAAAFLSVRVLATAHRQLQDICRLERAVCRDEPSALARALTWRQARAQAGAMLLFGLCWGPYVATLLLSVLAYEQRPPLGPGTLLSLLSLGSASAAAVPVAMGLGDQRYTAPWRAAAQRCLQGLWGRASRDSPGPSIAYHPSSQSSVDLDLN
Nature of the data set: Agonist activity at N-terminal HA-tagged human TGR5 expressed in HEK293 cells assessed as […] in intracellular cAMP levels incubated for 30 mins by Lance Ultra cAMP assay. The format is functional, cell-based.

For data set [5], the target named is T2, G-protein coupled bile acid receptor 1 (Homo sapiens) (UniProt Q8TDU6).
T2 sequence (whole entry): T1 sequence (Q8TDU6 whole entry)
The experiment in a line: Agonist activity at N-terminal HA-tagged human TGR5 expressed in HEK293 cells assessed as […] in intracellular cAMP levels incubated for 30 mins by Lance Ultra cAMP assay relative to control. The format is functional, cell-based. The conditions noted are these: filed as agonist.

Data set [6] concerns the target T3, G-protein coupled bile acid receptor 1 (Mus musculus, UniProt Q80SS6).
T3 sequence (Q80SS6 whole entry): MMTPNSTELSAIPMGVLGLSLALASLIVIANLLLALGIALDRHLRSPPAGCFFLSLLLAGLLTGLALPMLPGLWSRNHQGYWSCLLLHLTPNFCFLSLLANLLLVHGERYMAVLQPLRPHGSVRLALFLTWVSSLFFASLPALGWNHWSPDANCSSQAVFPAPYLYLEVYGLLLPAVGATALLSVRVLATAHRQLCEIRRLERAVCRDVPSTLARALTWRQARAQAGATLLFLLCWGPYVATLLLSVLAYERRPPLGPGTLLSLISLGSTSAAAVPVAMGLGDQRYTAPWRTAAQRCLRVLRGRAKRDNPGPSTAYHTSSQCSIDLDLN
The experiment in a line: Agonist activity at N-terminal HA-tagged mouse TGR5 expressed in HEK293 cells assessed as […] in intracellular cAMP levels incubated for 30 mins by Lance Ultra cAMP assay. The format is functional, cell-based.

The target of data set [7] is T4, G-protein coupled bile acid receptor 1 (Mus musculus) (UniProt Q80SS6).
T4 sequence (whole entry): T3 sequence (Q80SS6 whole entry)
Nature of the data set: Agonist activity at N-terminal HA-tagged mouse TGR5 expressed in HEK293 cells assessed as […] in intracellular cAMP levels incubated for 30 mins by Lance Ultra cAMP assay relative to control. Type of data set: functional, cell-based. To be noted: for Activity: filed as agonist.

The test system of data set [8] is Mus musculus. The experiment in a line: Anti-glycemic activity in fasted C57/BL6 mouse harboring TGR5 H88Y mutant assessed as reduction in plasma glucose at 100 mg/kg administered 30 mins prior to glucose challenge by OGTT. The format is functional, organism-based.
For data set [9], the target named is T5, Bile acid receptor (Homo sapiens) (UniProt Q96RI1).
T5 sequence (whole entry): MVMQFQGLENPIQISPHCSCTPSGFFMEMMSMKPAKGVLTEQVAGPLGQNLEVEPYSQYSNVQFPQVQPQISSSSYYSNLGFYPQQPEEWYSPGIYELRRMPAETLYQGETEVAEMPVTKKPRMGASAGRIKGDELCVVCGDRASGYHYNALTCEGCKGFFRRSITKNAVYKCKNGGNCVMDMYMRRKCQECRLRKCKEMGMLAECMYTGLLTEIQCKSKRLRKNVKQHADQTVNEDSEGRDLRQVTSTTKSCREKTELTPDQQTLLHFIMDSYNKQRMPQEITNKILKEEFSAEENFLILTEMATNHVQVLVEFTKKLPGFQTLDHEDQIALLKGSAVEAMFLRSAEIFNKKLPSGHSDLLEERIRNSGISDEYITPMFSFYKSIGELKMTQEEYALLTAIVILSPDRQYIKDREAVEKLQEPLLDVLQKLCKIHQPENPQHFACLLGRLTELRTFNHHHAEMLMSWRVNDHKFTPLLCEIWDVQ
The experiment in a line: Agonist activity at human FXR (247 to 467 residues) expressed in HEK293 cells at 100 uM incubated for 8 hrs by luciferase assay. Type of data set: cell-based.

The nature of data set [10]: Apparent permeability in human Caco2 cells across apical side to basolateral side assessed as drug recovery at 10 uM incubated for 95 mins by liquid chromatography-tandem mass spectrometry. The format is ADME, cell-based. The conditions noted are these: Caco-2, read-out: Drug recovery.
Data set [11] is described as follows: Apparent permeability in human Caco2 cells across basolateral side to apical side assessed as drug recovery at 10 uM incubated for 95 mins by liquid chromatography-tandem mass spectrometry. The format is ADME, cell-based. The conditions noted are these: Caco-2, read-out: Drug recovery.
A short description of data set [12]: Apparent permeability in human Caco-2 cells across apical side to basolateral side at 10 uM incubated for 95 mins by liquid chromatography-tandem mass spectrometry. Type of data set: ADME, cell-based. (Caco-2 cells form a polarised layer with tight junctions and transporters.)
A short description of data set [13]: Apparent permeability in human Caco-2 cells across basolateral side to apical side at 10 uM incubated for 95 mins by liquid chromatography-tandem mass spectrometry. The format is ADME, cell-based.
Data set [14] is described as follows: Efflux ratio in human Caco-2 cells at 10 uM by LC/MS/MS analysis. Type of data set: ADME, cell-based.
For data set [15], the system named is Mus musculus. The experiment in a line: Anti-glycemic activity in fasted C57BL/6n mouse harboring wild type TGR5 assessed as reduction in plasma glucose at 100 mg/kg administered 30 mins prior to glucose challenge by OGTT. The format is functional, organism-based.
For data set [16], the system named is Mus musculus. Nature of the data set: Anti-glycemic activity in fasted C57BL/6n mouse harboring TGR5 H88Y mutant assessed as increase in serum GLP1 at 100 mg/kg administered 30 mins prior to glucose challenge and measured after 15 mins by ELISA method. Type of data set: functional, organism-based. (In general: ELISA stands for enzyme-linked immunosorbent assay.)

For data set [17], the system named is Mus musculus. The experiment in a line: Anti-glycemic activity in fasted C57BL/6n mouse harboring TGR5 H88Y mutant assessed as increase in serum insulin at 100 mg/kg administered 30 mins prior to glucose challenge and measured after 15 mins by ELISA method. The format is functional, organism-based.
Data set [18] concerns Mus musculus. The experiment in a line: Anti-glycemic activity in fasted C57BL/6n mouse assessed as increase in serum GLP1 at 100 mg/kg administered 30 mins prior to glucose challenge and measured after 15 mins by ELISA method. Type of data set: functional, organism-based.
The test system of data set [19] is Mus musculus. The experiment in a line: Anti-glycemic activity in fasted C57BL/6n mouse assessed as increase in serum insulin at 100 mg/kg administered 30 mins prior to glucose challenge and measured after 15 mins by ELISA method. The format is functional, organism-based.
Data set [20] concerns Pancreatic islet. The experiment in a line: Stimulation of glucose-induced insulin secretion in pancreatic islets of C57BL/6n mouse harboring TGR5 H88Y mutant at 1 uM incubated for 2 hrs by HTRF method. The format is functional, tissue-based.
The subject of data set [21] is Pancreatic islet. The experiment in a line: Stimulation of glucose-induced insulin secretion in pancreatic islets of C57BL/6n mouse harboring wild type TGR5 at 1 uM incubated for 2 hrs by HTRF method. The format is functional, tissue-based.

As to `COc1ccc2cc(CNCCc3ccc(Br)cc3)c(-c3ccsc3)nc2c1`, the outcome in data set [1] was Active. The Ratio in data set [2] worked out at 5.6.
For `C[C@H](O)[C@@H]1CC[C@]2(C(=O)O)CC[C@]3(C)[C@H](CC[C@@H]4[C@@]5(C)CC[C@@H](OC(=O)NC6CC6)C(C)(C)[C@@H]5CC[C@]43C)[C@@H]12` [listing 1 of 2 here], in data set [3], the solubility came to 12.2 µM (≈ 6.63 µg/mL). For the same compound, the EC50 in data set [4] was 5.07 nM.
The compound `CCCC(=O)O[C@@H]1CC[C@]2(C)[C@H]3CC[C@@H]4[C@H]5[C@H](C(C)C)CC[C@]5(C(=O)O)CC[C@@]4(C)[C@]3(C)CC[C@H]2C1(C)C` registered a solubility in data set [3] of 0.13 µM (≈ 0.0687 µg/mL). Also, the EC50 stood at 83.1 nM in data set [4] and 2610 nM in data set [6]. In addition, the Emax was found to be 94% in [5] and 22% in data set [7]. Also, the outcome in data set [8] and in data set [9] was inactive. In addition, the recovery at 1.583 h, 10 µM in data set [10] and in data set [11] was 0% in each case.
Consider `C[C@H](CCC(=O)O)[C@H]1CC[C@H]2[C@@H]3CC[C@@H]4C[C@H](O)CC[C@]4(C)[C@H]3CC[C@]12C`, for which the outcome in [7] and in [1] was Active.
Take `C[C@H](O)[C@@H]1CC[C@]2(C(=O)[O-])CC[C@]3(C)[C@H](CC[C@@H]4[C@@]5(C)CC[C@@H](OC(=O)NC6CC6)C(C)(C)[C@@H]5CC[C@]43C)[C@@H]12.[Na+]`: the solubility in data set [3] was 76300 µM. In addition, the Papp A→B at 1.583 h, 10 µM in data set [12] came to 7.56 ×10⁻⁶ cm/s. Besides, the Papp B→A at 1.583 h, 10 µM in data set [13] turned out to be 2.49 ×10⁻⁶ cm/s. For the same compound, in [14], the efflux ratio at 10 µM was 0.329. Further, the values for the recovery at 1.583 h, 10 µM in data set [10] and in [11] were 84.6% and 85.1%, respectively.
Consider `C[C@H](CCC(=O)O)[C@H]1CC[C@H]2[C@@H]3[C@H](O)C[C@@H]4C[C@H](O)CC[C@]4(C)[C@H]3C[C@H](O)[C@]12C`, for which the result in data set [7] and in [1] was Active.
As to `CC(C)NC(=O)O[C@@H]1CC[C@]2(C)[C@H]3CC[C@@H]4[C@H]5[C@H](C(C)C)CC[C@]5(C(=O)O)CC[C@@]4(C)[C@]3(C)CC[C@H]2C1(C)C`, the concentration giving a half-maximal response (EC50) in [4] was determined as 124 nM. The Emax in data set [5] turned out to be 97%. In addition, the result in data set [9] was inactive.
For `CC(C)[C@@H]1CC[C@]2(C(=O)O)CC[C@]3(C)[C@H](CC[C@@H]4[C@@]5(C)CC[C@@H](OC(=O)NC6CCCC6)C(C)(C)[C@@H]5CC[C@]43C)[C@@H]12`, in that order: 29.2 nM, 92% and “inactive”.
On to `C[C@H](O)[C@@H]1CC[C@]2(C(=O)O)CC[C@]3(C)[C@H](CC[C@@H]4[C@@]5(C)CC[C@@H](OC(=O)NC6CC6)C(C)(C)[C@@H]5CC[C@]43C)[C@@H]12` [listing 2 of 2 here], for which the Emax in [5] is 99%. In addition, the outcome in data set [8], in [16], in data set [17], in data set [20] and in data set [21] was Active. Besides, the outcome in data set [15], in data set [18], in [19] and in data set [9] was inactive.
Take `CC(C)[C@@H]1CC[C@]2(C(=O)O)CC[C@]3(C)[C@H](CC[C@@H]4[C@@]5(C)CC[C@@H](OC(N)=O)C(C)(C)[C@@H]5CC[C@]43C)[C@@H]12`: the EC50 in [4] was determined as 30.7 nM. Moreover, the Emax in data set [5] is 100%. In addition, the outcome in [9] was inactive.
The corresponding values for `CC(C)[C@@H]1CC[C@]2(C(=O)O)CC[C@]3(C)[C@H](CC[C@@H]4[C@@]5(C)CC[C@@H](OC(=O)NC6CC6)C(C)(C)[C@@H]5CC[C@]43C)[C@@H]12` are 10.1 nM, 99% and “inactive”.
`O=C(c1cccnc1Oc1cc(Cl)ccc1Cl)N1CCCc2ccccc21`: the outcome in [1] was Active. Besides, the Ratio in data set [2] is 4.9.
